Reference: US12428370B2, “Haloallylamine dual amine oxidase inhibitors” (Syntara Limited, priority 2020, dated 2025)
Where a name gives a salt, the structure may show the parent alone.

Legend:
[1] = test system: BALB/c mice, carrageenan air pouch; assay: Carrageenan air pouch model; format: in vivo; conditions: single oral application 1 h before carrageenan, read 4 h after, vs carrageenan-treated mice, FIG. 4
Procedure: On day 0, BALB/c mice were shaved at the nape of the neck, anesthetized and 6 mL air sterile (0.2 μm, Sartorius, Cat. 16532) was injected subcutaneously using a 23G×1½ inch needle fixed to a 6 mL syringe. The injection site was sealed with flexible collodion (Macron, Cat. 4580-02). On day 3 a further 3 mL of sterile air was injected into the neck.
3% λ-carrageenan was prepared by dissolving 1.8 g λ-carrageenan (FLUKA, Cat. 22049, lot 1408463) in 60 mL hot de-ionized water. Once dissolved, the solution was cooled to room temperature and the volume made up to 60 mL with de-ionized water.
On day six, PXS-5131 in PBS (vehicle) or PBS only were administered by oral gavage to the mice. One hour after administration, mice were injected with 1 mL 3% λ-carrageenan, using a 23G×2 inch needle fitted to a 1 mL syringe, directly into the air pouch. Sham animals were administered 1 mL de-ionized water instead of λ-carrageenan solution.
Four hours after carrageenan/de-ionized water injection, the mice were anesthetized and 3 mL 10 U/mL heparinized saline was injected into the air pouch. The air pouch was gently massaged, the contents immediately removed using an 18G×1 inch needle fitted to a 5 mL syringe, and the exudate volume recorded. An aliquot of the exudate taken for total white blood cell counting; a second aliquot of the exudate was taken for differential white blood cell counts.

[2] = test system: mdx mice (C57BL/10ScSn-Dmdmdx/J); assay: Mouse model of Duchenne muscular dystrophy, Compound 1; format: in vivo; conditions: 4.8 mg/kg/day oral
Procedure: Three-months old mdx mice (C57BL/10ScSn-Dmdmdx/J) received daily doses of Compound 1 (in a range of 1-6 mg/kg) administered in the drinking water for thirty days. Untreated, age-matched animals were used as controls. A second cohort of mice aged 10 months-old received daily doses of Compound 1 (in a range of 1-6 mg/kg) administered in the drinking water for ninety days. Untreated, age-matched animals were used as controls.
After the end of each treatment period, animals were sacrificed by cervical dislocation and the skeletal muscle and the heart (minus the atria) collected, flash-frozen in isopentane pre-cooled with liquid nitrogen and stored at −80° C. 12 μm sections from the diaphragm muscle were prepared with a cryotome; multiple serial slides were prepared, containing sections from at least three different levels. The same procedure was used to prepare heart transverse sections.
The amount of the neutrophil and macrophage infiltration, reactive oxygen species (ROS) present and the percentage of fibrotic tissue, was determined as described in EXAMPLE 17.

[3] = test system: Salmonella typhimurium strains TA98, TA100 and Escherichia. coli WP2 uvrA pKM101; assay: Miniaturized bacterial reverse mutagenicity screening assay; format: cell-based; conditions: 7.81-1000 μg/well, presence and absence of S9 metabolic activation
Procedure: Compound 1 was tested for mutagenic potential in a miniaturized reverse mutation assay using Salmonella typhimurium strains TA98, TA100 and Escherichia. coli WP2 uvrA pKM101 in the presence and absence of a metabolic activation system. The test article was formulated in dimethylsulfoxide (DMSO) at nominal concentration of 50 mg/mL and serial dilutions were made from this stock solution. Final dosing concentrations were 1000, 500, 250, 125, 62.5, 31.3, 15.6 and 7.81 μg/well for the test article. Metabolic activation was provided using an S9 mix containing 10% v/v Aroclor-1254-induced rat liver S9 (Regensys System reagents, Moltox, Boone, NC).

[4] = Stability of Compound 1 in a grape syrup formulation; format: physicochemical
Procedure: Methylparahydroxybenzoate (126.2 mg), propylparahydroxybenzoate (20.0 mg), sodium phosphate monobasic (1%, 1.0 g) and saccharose (16.56 g) were dissolved in 100 mL purified water, vortexed for 10 min, followed by sonication for 30 min, and then filtered through a 0.45 μm filter. pH adjusted to pH 5 using 0.5 M NaOH. To 50 mL of the resultant solution was added grape flavor (LorAnnOils, 0180-0800; 1%, 0.5 mL), followed by 50 mg of Compound 1 to attain a final concentration of 1 mg/mL. Split into two 25 mL portions, one frozen, and one left at room temperature (rt) in a sealed falcon tube.

SMILES: NC/C(=C\F)C1Cc2ccccc2O1 (single isomer, unassigned; (-)) [PXS-5131, (−)-(E)-2-(2,3-Dihydrobenzofuran-2-Yl)-3-Fluoroprop-2-En-1-Amine Hydrochloride]
- exudate volume in the air pouch [1]: decrease
- neutrophil count in the air pouch [1]: decrease

SMILES: N#Cc1ccc(OC/C(=C/F)CN)cc1 [Compound 1, (E)-4-((2-(aminomethyl)-3-fluoroallyl)oxy) benzonitrile]
- cardiac fibrosis (picrosirius red staining in the heart muscle) ([2]; ninety days, 10 months-old mdx mice, p<0.0001, FIG. 13): significantly reduces
- neutrophil influx in the diaphragm muscle ([2]; thirty days, 3 months-old mdx mice, p<0.0001, FIG. 12A): significantly reduces
- macrophage influx in the diaphragm muscle ([2]; thirty days, 3 months-old mdx mice, p<0.0001, FIG. 12B): significantly reduces
- reactive oxygen species in the diaphragm muscle ([2]; thirty days, 3 months-old mdx mice, p<0.0001, FIG. 12C): significantly reduces
- fibrosis (picrosirius red staining) in the diaphragm muscle ([2]; thirty days, 3 months-old mdx mice, p<0.0001, FIG. 12D): significantly reduces
- mutagenic potential [3]: did not induce a response indicative of mutagenic potential
- degradation in grape syrup formulation ([4]; 91 days at room temperature): no discernible degradation
- Purity of Compound 1 stored at rt for 91 days as measured by HPLC/area under the curve at 265 nm ([4]; grape syrup formulation 1 mg/mL, pH 5, rt, 91 days): 99.785%
- Purity of Compound 1 stored at −20° C. for 91 days as measured by HPLC/area under the curve at 265 nm ([4]; grape syrup formulation 1 mg/mL, pH 5, −20° C., 91 days): 99.781%
